Here are results for 13 compounds from ChEMBL document CHEMBL5465560, “Selectivity Literature for EUbOPEN Chemogenomic Library” (2024).

Molecules are shown by their SMILES.

The target of test [1] is Kappa-type opioid receptor (Homo sapiens, UniProt P41145). Put plainly: Selectivity interaction (Panel of kinases, GPCRs, ion channels and transporters (enzymatic assay)) EUB0000266bCl OPRK1.
Test [2] has as its target Fibroblast growth factor receptor 3 (Homo sapiens, UniProt P22607). Kind of test: Selectivity interaction (Upstate Kinase Profiler service (Millipore)) EUB0000056c FGFR3. As to conditions: at 1 µM.
For test [3], the target named is Maternal embryonic leucine zipper kinase (Homo sapiens) (UniProt Q14680). Kind of test: Selectivity interaction (Kinase panel (DSF assay)) EUB0001558a MELK. (In DSF a fluorescence change marks the thermal transition of the protein.)
For test [4], the target named is Serine/threonine-protein kinase MARK1 (Homo sapiens) (UniProt Q9P0L2). Put plainly: Selectivity interaction (KinomeScan (DiscoverX)) EUB0001049a MARK1. Particulars: at 1 µM.
Test [5] has as its target Tyrosine-protein kinase Srms (Homo sapiens) (UniProt Q9H3Y6). Put plainly: Selectivity interaction (KinomeScan (DiscoverX)) EUB0000695a SRMS. Particulars: at 100 nM.
Test [6] concerns the target T1, cGMP-dependent protein kinase 1 (Homo sapiens) (UniProt Q13976).
T1 sequence (whole entry): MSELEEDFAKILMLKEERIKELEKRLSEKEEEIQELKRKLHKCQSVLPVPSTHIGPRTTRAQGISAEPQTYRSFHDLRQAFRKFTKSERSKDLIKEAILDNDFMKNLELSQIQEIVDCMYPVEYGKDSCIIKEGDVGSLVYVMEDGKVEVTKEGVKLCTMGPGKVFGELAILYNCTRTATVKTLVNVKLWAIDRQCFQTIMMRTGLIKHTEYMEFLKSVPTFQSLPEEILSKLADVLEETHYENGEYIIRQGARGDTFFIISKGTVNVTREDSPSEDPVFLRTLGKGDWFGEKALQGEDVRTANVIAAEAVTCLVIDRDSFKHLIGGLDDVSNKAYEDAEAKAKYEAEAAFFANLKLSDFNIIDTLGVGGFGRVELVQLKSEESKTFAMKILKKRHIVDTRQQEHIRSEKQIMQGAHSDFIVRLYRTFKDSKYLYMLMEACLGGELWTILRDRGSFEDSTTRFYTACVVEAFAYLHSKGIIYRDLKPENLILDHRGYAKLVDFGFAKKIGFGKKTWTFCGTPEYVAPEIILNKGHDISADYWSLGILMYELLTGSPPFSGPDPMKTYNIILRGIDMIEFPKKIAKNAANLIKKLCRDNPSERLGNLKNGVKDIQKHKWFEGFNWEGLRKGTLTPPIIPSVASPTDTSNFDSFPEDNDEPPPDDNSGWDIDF
Put plainly: Selectivity interaction (Kinase panel (Z-LYTE Assay)) EUB0001632a PRKG1. Particulars: at 10 µM.

Test [7] has as its target Serine/threonine-protein kinase SIK2 (Homo sapiens) (UniProt Q9H0K1). Put plainly: Selectivity interaction (KinomeScan (DiscoverX)) EUB0000607a SIK2. As to conditions: at 10 µM.
Test [8] deals with Serine/threonine-protein kinase PAK 6 (Homo sapiens) (UniProt Q9NQU5). Put plainly: Selectivity interaction (Kinase panel (Invitrogen)) EUB0000639a PAK6. Particulars: at 200 nM.
Test [9] concerns the target BMP-2-inducible protein kinase (Homo sapiens) (UniProt Q9NSY1). Kind of test: Selectivity interaction (KinomeScan (DiscoverX)) EUB0000229b BMP2K. Particulars: at 10 µM.
In test [10] the target is T2, Serine/threonine-protein kinase ULK3 (Homo sapiens) (UniProt Q6PHR2).
T2 sequence (whole entry): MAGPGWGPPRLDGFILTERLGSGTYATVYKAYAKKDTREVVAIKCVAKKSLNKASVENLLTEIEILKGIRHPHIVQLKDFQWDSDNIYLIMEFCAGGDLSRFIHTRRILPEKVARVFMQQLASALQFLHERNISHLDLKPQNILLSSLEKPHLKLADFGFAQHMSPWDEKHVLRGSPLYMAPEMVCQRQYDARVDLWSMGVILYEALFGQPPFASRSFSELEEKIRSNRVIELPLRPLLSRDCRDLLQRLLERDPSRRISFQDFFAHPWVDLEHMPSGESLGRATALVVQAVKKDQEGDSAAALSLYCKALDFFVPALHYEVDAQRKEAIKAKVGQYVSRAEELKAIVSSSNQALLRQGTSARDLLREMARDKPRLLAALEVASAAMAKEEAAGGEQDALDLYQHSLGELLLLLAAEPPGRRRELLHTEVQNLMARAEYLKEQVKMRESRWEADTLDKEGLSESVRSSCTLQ
Put plainly: Selectivity interaction (Kinase panel (DSF assay)) EUB0001559a ULK3.

Test [11] in a line: Selectivity interaction (KinomeScan (DiscoverX)) EUB0000595a CDPK1. As to conditions: at 10 µM.
Test [12] addresses T3, Scaffold protein ILK (Homo sapiens) (UniProt Q13418).
T3 sequence (whole entry): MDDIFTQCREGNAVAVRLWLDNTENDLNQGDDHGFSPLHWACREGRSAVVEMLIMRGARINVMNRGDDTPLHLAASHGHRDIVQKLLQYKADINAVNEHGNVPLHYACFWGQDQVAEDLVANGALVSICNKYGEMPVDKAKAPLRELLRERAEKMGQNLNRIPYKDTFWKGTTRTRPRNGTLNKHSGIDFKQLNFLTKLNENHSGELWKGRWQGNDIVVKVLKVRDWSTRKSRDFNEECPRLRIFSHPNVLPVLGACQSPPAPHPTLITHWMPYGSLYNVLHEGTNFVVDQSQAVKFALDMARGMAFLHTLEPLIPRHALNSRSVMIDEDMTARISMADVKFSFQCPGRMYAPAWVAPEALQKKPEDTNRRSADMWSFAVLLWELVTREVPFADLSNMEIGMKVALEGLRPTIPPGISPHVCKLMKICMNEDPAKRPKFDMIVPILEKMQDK
Kind of test: Selectivity interaction (Kinase panel (KiNativ target engagement assay in Jurkat cells)) EUB0001635a ILK. It counts as cell-based. As to conditions: Selectivity number of off-targets 0.0, Selectivity number of targets 233.0, Source Knowledge https://www.sciencedirect.com/science/article/pii/S2451945619300674?via%3Dihub, at 1 µM.

In test [13] the target is T4, Uncharacterized serine/threonine-protein kinase SBK3 (Homo sapiens) (UniProt P0C264).
T4 sequence (whole entry): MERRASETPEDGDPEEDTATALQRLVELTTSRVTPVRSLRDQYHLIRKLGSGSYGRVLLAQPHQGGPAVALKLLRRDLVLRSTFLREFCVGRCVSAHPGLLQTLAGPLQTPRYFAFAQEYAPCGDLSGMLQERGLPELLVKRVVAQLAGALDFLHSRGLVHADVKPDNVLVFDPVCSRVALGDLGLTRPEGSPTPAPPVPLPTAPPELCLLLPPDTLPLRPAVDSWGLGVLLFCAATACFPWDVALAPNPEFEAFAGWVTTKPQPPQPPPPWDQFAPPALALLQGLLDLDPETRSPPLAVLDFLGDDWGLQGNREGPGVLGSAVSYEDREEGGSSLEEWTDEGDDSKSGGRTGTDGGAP
Put plainly: Selectivity interaction (KinomeScan (DiscoverX)) EUB0000618a SBK3. Particulars: at 10 µM.

The target in test [14] is Protein kinase C theta type (Homo sapiens, UniProt Q04759). Put plainly: Selectivity interaction (KinomeScan (DiscoverX)) EUB0000618a PRKCQ. Particulars: at 10 µM.
Sequence of Protein kinase C theta type (Q04759 whole entry, looked up): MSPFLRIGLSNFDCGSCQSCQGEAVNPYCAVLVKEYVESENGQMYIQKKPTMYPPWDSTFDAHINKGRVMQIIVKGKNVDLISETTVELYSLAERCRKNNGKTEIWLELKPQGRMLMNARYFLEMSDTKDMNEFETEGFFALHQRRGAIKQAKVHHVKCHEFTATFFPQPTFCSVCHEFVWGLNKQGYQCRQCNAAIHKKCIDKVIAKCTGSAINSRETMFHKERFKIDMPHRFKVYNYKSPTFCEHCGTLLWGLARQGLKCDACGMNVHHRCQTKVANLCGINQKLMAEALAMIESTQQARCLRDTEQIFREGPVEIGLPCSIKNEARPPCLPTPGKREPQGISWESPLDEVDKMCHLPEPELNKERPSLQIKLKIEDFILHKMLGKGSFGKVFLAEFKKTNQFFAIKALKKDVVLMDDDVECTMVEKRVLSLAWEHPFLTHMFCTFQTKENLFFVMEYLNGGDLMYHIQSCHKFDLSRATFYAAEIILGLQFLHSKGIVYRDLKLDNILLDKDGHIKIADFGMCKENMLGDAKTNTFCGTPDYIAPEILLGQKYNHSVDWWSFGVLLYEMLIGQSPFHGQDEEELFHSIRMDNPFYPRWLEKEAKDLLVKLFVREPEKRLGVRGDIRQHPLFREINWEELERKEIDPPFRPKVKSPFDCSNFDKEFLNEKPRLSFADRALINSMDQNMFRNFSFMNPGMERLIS

Sequence of Tyrosine-protein kinase Srms (Homo sapiens) (Q9H3Y6 whole entry): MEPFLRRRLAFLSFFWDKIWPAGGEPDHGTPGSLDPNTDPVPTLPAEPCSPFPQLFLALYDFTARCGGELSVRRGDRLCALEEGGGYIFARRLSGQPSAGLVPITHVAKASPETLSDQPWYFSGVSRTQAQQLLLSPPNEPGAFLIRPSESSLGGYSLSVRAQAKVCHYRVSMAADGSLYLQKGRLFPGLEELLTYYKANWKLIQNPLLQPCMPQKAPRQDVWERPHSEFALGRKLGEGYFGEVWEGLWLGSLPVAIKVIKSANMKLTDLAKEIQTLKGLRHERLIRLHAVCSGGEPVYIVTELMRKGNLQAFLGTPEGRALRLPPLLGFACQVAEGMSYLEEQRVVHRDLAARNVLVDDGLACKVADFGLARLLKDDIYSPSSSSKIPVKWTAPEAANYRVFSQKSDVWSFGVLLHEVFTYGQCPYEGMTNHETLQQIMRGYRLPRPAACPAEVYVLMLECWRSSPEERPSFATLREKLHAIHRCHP
Sequence of Serine/threonine-protein kinase PAK 6 (Homo sapiens) (Q9NQU5 whole entry, looked up): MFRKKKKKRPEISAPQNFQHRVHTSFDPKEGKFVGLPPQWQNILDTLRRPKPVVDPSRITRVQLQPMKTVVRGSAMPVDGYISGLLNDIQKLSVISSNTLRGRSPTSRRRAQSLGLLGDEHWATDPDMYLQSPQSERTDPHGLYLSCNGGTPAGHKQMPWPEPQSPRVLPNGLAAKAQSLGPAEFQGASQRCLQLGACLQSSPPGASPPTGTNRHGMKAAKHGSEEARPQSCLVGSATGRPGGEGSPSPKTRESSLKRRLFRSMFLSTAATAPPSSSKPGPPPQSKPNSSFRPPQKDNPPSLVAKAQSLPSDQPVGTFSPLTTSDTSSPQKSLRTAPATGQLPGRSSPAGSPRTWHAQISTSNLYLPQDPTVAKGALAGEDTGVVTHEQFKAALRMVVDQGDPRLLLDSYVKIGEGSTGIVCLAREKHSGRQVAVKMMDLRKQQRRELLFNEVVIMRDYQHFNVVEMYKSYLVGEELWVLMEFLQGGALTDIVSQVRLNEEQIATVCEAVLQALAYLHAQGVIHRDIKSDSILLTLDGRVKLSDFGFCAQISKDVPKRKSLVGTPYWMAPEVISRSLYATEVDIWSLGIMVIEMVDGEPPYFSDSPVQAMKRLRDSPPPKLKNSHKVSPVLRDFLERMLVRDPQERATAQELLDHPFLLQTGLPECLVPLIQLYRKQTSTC
Sequence of Fibroblast growth factor receptor 3 (P22607 23-806 limits assumed): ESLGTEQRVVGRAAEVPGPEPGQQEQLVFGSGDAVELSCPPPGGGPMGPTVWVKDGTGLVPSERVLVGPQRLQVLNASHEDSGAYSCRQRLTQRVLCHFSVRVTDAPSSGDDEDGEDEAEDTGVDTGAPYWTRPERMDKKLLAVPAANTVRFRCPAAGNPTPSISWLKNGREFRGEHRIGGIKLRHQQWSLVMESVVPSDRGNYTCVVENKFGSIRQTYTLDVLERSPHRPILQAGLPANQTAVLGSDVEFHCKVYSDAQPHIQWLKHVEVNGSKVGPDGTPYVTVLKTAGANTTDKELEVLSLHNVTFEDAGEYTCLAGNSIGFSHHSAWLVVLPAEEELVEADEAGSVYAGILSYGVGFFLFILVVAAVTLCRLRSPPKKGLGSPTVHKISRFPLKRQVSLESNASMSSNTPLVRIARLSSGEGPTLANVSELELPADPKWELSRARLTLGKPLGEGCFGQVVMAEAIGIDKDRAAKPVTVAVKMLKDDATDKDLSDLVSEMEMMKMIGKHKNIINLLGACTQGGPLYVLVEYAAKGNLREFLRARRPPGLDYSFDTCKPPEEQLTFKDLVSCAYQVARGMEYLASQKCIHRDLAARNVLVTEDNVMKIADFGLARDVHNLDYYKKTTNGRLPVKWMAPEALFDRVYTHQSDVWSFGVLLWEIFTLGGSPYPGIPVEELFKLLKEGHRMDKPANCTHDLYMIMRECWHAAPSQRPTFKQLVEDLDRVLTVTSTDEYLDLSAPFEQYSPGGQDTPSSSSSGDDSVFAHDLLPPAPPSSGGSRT
Sequence of Kappa-type opioid receptor (P41145 whole entry): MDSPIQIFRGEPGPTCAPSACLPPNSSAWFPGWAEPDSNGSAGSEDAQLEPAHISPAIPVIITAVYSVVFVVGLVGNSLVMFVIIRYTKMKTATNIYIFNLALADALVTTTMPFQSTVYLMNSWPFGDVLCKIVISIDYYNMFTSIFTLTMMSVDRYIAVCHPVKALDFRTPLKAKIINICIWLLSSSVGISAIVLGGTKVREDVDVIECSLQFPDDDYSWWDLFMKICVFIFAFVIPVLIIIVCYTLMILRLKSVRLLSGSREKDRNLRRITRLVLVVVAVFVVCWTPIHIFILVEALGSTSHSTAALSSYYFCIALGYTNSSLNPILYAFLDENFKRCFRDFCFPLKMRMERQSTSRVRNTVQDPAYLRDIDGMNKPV
Sequence of Serine/threonine-protein kinase SIK2 (Homo sapiens) (Q9H0K1 whole entry, looked up): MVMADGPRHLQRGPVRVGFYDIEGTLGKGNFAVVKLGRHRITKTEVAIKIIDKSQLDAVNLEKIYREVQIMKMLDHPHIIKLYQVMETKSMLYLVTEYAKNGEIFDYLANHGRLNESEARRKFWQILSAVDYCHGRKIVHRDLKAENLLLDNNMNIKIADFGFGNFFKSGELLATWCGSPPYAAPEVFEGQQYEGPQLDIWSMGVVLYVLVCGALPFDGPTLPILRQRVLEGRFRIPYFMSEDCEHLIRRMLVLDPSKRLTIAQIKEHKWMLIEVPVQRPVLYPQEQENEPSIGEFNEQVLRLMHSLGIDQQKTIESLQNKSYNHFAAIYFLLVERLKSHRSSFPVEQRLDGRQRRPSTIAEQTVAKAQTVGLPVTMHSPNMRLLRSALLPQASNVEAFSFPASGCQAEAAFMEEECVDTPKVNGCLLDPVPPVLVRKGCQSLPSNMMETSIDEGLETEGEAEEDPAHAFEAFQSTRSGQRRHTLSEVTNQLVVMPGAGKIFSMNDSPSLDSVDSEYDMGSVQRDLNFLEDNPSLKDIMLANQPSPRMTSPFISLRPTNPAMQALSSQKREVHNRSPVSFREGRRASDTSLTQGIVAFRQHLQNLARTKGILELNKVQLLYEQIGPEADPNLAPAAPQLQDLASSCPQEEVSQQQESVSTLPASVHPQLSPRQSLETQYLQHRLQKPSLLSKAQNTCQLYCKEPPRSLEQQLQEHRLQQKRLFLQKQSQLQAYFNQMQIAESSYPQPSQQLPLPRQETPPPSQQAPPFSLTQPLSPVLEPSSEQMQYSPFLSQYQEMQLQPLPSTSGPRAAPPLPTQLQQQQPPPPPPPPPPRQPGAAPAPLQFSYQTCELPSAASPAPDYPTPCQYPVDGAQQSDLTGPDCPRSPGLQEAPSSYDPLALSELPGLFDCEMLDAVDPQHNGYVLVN
Sequence of Maternal embryonic leucine zipper kinase (Homo sapiens) (Q14680 whole entry, looked up): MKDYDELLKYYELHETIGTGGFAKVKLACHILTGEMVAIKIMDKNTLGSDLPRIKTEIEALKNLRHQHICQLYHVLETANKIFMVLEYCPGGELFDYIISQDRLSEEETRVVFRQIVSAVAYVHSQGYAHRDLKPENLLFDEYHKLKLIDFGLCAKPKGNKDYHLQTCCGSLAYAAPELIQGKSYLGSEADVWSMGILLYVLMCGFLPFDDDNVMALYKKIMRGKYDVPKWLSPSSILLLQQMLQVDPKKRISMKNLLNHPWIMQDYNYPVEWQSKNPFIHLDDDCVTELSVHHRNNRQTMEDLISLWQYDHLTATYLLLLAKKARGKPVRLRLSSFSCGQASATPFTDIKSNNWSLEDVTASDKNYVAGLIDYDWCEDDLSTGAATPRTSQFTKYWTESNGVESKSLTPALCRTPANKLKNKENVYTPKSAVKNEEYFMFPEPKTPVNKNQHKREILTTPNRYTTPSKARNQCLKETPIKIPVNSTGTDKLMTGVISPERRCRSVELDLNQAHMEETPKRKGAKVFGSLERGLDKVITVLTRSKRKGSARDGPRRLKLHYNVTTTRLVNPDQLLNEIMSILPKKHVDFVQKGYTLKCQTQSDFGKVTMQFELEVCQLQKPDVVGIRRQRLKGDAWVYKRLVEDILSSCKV

In the case of `CCn1c(-c2nc3cc(C(=O)N4CCCC(N)C4)ccc3n2C)cc2ccccc21` (centres undefined), in test [1], the pXC50 is < 4 M.

`Cc1ccc(-c2ccc3c(ccc4sc5c(c43)NC[C@@H](C)NC5=O)n2)cn1` showed a % of inhibition in test [2] of 16%.

Turning to `CC(C)(O)[C@H](F)CN1Cc2cc(NC(=O)c3cnn4cccnc34)c(N3CCOCC3)cc2C1=O`, in [3], the dTM amounted to 0.9 K.

As to `COc1cc(Nc2nc(C)cc(-c3cnn4nc(OC)ccc34)n2)cc(C(F)(F)F)c1`, the % of control in test [4] was 98%.

Turning to `Cc1cc(F)c(C(=O)Nc2cccc(-c3nncn3C(C)C)n2)cc1-n1cnc(C2CC2)c1`, in [5], the % of control turned out to be 100%.

For the compound `Cn1cc(-n2cnc3c(NCc4nc5cc(Cl)c(Cl)cc5[nH]4)nc(N4CCOCC4)nc32)cn1`, in test [6], the % of control is -8.04%.

As to `CNC(=O)Nc1ccc(-c2nc(N3CC4CCC(C3)O4)c3cnn(C4CCC5(CC4)OCCO5)c3n2)cc1`, the % of control in test [7] was determined as 97%.

In test [8], `CC[C@@H]1[C@H](F)C(=O)N[C@@H]1COc1nccc2cc(C(N)=O)c(OC)cc12` [ZIMLOVISERTIB] yielded a % of inhibition of 5.16%.

In [9], `COc1cc(N(C)c2ccnc3ccc(C(F)(F)F)cc23)cc(OC)c1OC` yielded a % binding of 99%.

As for `CN(C(=O)c1cnn2cccnc12)c1cc2c(cc1N1CCOCC1)C(=O)N(C[C@@H](F)C(C)(C)O)C2`, in [10], the dTM was -0.5 K.

Turning to `COCC(=O)NC/C=C/c1ccc2ncnc(Nc3ccc(Oc4ccc(C)nc4)c(C)c3)c2c1` [CP-724714], the % of control in test [11] stood at 25%.

In the case of `C=CC(=O)Nc1ccc(C(=O)Nc2[nH]nc3c2CN(C(=O)N[C@H](CN(C)C)c2ccccc2)C3(C)C)cc1`, in test [12], the % of engagement was -20.3%.

Regarding `O[C@H]1CC[C@H](Nc2ncc3nc(Nc4c(F)cc(F)cc4F)n([C@H]4CCOC4)c3n2)CC1`, the % of control in test [13] and in test [14] was 100% each time.
